As a reminder, the IC50 is the midpoint of a concentration-inhibition curve.

The structures appear in SMILES notation.

The source of these data is patent US20220388962A1 (Biohaven Therapeutics Ltd., priority 2019, published 2022).

The target in the first experiment is T1, TDP-43 (Homo sapiens, UniProt Q13148).
T1 sequence (Q13148 whole entry): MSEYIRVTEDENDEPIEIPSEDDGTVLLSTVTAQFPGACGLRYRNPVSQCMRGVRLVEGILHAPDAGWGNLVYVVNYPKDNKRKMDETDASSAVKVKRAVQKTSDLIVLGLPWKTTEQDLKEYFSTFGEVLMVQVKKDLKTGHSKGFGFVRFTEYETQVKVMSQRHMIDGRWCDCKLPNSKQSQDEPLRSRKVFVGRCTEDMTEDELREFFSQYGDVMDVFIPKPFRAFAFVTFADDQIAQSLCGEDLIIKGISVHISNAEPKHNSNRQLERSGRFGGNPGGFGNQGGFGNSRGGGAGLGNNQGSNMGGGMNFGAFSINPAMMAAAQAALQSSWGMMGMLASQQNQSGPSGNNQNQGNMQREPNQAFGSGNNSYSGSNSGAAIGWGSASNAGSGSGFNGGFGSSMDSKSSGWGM
Test: not given
The settings on record: using bt-(TG)6, not bt-TAR32; cited from earlier work.
For `COc1ccc(-c2cc(NCCCN(C)C)c3ccccc3n2)cc1` [(XXVIII)], the “activity in TDP-43 alpha-screen” value is on record as “active”.

The next experiment deals with T1, TDP-43.
Test: not given
To be noted: previously reported; cited from earlier work.
Take `COc1ccc(-c2cc(NCCCN(C)C)c3ccccc3n2)cc1` [(XXVIII)]: the “caspase-7 cleavage of TDP-43” value is reported as “promoted caspase-7 cleavage of TDP-43”.

Another experiment has as its target T1, TDP-43. Description: TDP-43-DNA alpha-screen assay (bt-TAR-32 displacement). The class given is binding. To be noted: bt-TAR-32 0.125 nM, 15 ng/ml TDP-43. In outline:
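GST-TDP-43 (15 ng/ml final) on anti-GST acceptor beads pre-incubated 30 min at 23 °C with compound (50 to 0.02 μM, half-log) in 25 mM Tris pH 7.4, 0.1% BSA, 0.1% Triton X-100. Biotinylated TAR-32 DNA (0.125 nM final) on streptavidin donor beads added, 90 min at 23 °C dark; AlphaScreen signal fitted for IC50.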
(Bead proximity is the source of the signal in Alpha formats.)
With `COc1ccc(-c2cc(NCCCO)c3ccccc3n2)cc1` [Example 135], the IC50 was determined as 31.7 µM. Turning to `COc1ncc(-c2cc(NCCCN(C)C)c3ccccc3n2)cn1` [Example 136], the IC50 was determined as 38.5 µM. Regarding `Cc1cc(NCCCN(C)C)c2ccccc2n1` [Example 137], the IC50 turned out to be 45.6 µM. Still for that read-out and setting: in the case of `COc1ccc(-c2cc(NCCC(=O)N(C)C)c3ccccc3n2)cc1` [Example 138] it was 52.6 µM; in that of `COc1ccc(-c2cc(NCCCN(C)C)c3ccccc3n2)cn1` [Example 139], 6.51 µM. Still for that read-out and setting: in the case of `COc1ccc(-c2cc(NCCCN(C)C)c3cc4c(cc3n2)OC(F)(F)O4)cc1` [Example 140] it was 6.56 µM; in that of `COc1ccc(-c2cc(NC3CCC(F)(F)CC3)c3ccccc3n2)cc1` [Example 141], 64.5 µM; in that of `COc1ccc(-c2cc(NCCC(=O)OC(C)(C)C)c3ccccc3n2)cc1` [Example 142], 65.3 µM.

As for `COc1ccc2nc(C(F)(F)F)cc(NCCCN(C)C)c2c1` [Example 143], the IC50 came to 79.4 µM. On to `COc1cc2c(NCCCN(C)C)ccnc2cc1OCCCN1CCCC1` [Example 144], for which the IC50 came out at 0.01 µM.

With `COc1cc2nccc(NCCCN(C)CCCN)c2cc1OC` [Example 146], the IC50 turned out to be 0.41 µM. Still for that read-out and setting: in the case of `COc1cc2nccc(NCCCN(C)CCCN)c2cc1OC` [Example 147, N^1-(3-aminopropyl)-N^3-(6,7-dimethoxyquinolin-4-yl)-N^1-methylpropane-1,3-diamine] it was 0.84 µM.
